Source: BindingDB's records for doi:10.1124/jpet.300.1.305 (Merck Research Laboratories, 2002)
Square brackets hold non-standard residues; d marks the D form. Peptide text beside a SMILES is read from it. NMeR = CN[C@@H](CCCNC(=N)N)C(=O)O; Tle = CC(C)(C)[C@H](N)C(=O)O

Legend:
[1] = biological target: Neurotensin receptor type 1 (Mus musculus, UniProt O88319)
[2] = biological target: Neurotensin receptor type 2 (Mus musculus, UniProt P70310)
Chain of Neurotensin receptor type 2 (P70310 whole entry): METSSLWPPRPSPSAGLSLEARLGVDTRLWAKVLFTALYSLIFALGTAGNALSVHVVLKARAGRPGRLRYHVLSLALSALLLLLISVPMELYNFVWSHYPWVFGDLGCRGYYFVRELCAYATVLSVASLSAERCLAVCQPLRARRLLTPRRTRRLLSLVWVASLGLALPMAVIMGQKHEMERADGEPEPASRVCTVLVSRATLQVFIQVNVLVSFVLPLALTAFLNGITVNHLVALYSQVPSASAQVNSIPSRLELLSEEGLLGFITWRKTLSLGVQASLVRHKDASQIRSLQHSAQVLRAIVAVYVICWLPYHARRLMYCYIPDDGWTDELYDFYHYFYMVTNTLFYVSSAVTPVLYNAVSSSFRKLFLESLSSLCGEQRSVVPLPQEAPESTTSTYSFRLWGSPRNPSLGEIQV

Chain of Neurotensin receptor type 1 (O88319 whole entry): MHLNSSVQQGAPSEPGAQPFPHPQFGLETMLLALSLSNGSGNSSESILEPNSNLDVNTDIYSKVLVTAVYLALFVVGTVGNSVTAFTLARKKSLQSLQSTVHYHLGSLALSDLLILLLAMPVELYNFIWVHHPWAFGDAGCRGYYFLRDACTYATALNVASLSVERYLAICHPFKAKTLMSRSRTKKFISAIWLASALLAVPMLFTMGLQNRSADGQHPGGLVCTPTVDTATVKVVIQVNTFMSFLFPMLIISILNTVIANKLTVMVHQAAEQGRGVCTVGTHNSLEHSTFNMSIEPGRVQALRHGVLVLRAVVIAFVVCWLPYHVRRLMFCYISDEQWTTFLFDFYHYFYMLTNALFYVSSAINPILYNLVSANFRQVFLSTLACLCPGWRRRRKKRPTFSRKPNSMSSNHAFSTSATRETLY

Compound	Ki [1] [nM]	Ki [2] [nM]
CN[C@@H](CCCNC(=N)N)C(=O)N[C@@H](CCCCN)C(=O)N1CCC[C@H]1C(=O)N[C@@H](Cc1c[nH]c2ccccc12)C(=O)N[C@H](C(=O)N[C@@H](CC(C)C)C(=O)O)C(C)(C)C (H-[NMeR]KPW[Tle]L-OH)	0.11	3.8
CC1CN(C2CCC(C#N)(c3ccc(F)cc3)CC2)CCC1(C(=O)O)c1ccccc1 (stereo not given) [NSC_54385]		17
H-KNPYIL-OH [NSC_128644]	0.25	7
